Measured values from patent publication US20260297042A1, “BIARYLAMIDE DERIVATIVES AND THEIR USE AS PKMYT1 INHIBITORS” (CANCER RESEARCH TECHNOLOGY LIMITED, priority 2023, published 2026).

Tests used:
Human PKMYT1 = target: T1, Human PKMYT1 (Homo sapiens, UniProt Q99640); experiment: PKMYT1 biochemical ADP-Glo enzymatic assay; settings: ADP-Glo; 15 nM PKMYT1 kinase domain, 500 µM ATP, 60 minutes at 26° C.; banded
T1 construct: Human PKMYT1 75-362 was cloned as a TEV cleavable 6xHis fusion; 6xHis (TEV cleavable) (cleaved yes); made in house; host or cells: bacterial cells
T1 sequence (Q99640 75-362): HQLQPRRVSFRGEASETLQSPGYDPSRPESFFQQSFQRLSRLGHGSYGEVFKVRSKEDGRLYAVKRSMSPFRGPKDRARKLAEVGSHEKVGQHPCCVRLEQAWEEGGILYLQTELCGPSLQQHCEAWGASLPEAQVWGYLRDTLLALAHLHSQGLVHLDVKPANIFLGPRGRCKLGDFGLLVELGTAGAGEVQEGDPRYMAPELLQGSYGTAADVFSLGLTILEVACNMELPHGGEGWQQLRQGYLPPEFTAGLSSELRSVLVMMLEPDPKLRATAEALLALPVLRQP
In short: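 Measures inhibition of PKMYT1 autonomous ATP hydrolysis: bacterially expressed human enzyme (75-362, tag cleaved) at 15 nM with 500 µM ATP for 60 min at 26 °C, then ADP-Glo Max detection. IC50s accepted only when replicates agreed within 3-fold and curve r2 exceeded 0.9.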

WEE1 = target: T2, WEE1 (Homo sapiens, UniProt P30291); experiment: Selectivity versus WEE1 assay (ADP-Glo enzymatic assay); assay type: biochemical; settings: banded; for IC50: ADP-Glo, 15 nM WEE1, 60 minutes at 26° C.; for PKMYT1 vs. WEE1 selectivity: fold difference in selectivity for PKMYT1 over WEE1, ">N" = at least in this band but could be higher
T2 construct: purchased Thermo Fisher PR7373A
In short: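 Same format as the PKMYT1 assay: WEE1 at 15 nM final with 30 µM ATP, 60 min at 26° C, ADP-Glo luminescence detection, IC50 by dose-response fitting.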

T2 sequence (P30291 whole entry): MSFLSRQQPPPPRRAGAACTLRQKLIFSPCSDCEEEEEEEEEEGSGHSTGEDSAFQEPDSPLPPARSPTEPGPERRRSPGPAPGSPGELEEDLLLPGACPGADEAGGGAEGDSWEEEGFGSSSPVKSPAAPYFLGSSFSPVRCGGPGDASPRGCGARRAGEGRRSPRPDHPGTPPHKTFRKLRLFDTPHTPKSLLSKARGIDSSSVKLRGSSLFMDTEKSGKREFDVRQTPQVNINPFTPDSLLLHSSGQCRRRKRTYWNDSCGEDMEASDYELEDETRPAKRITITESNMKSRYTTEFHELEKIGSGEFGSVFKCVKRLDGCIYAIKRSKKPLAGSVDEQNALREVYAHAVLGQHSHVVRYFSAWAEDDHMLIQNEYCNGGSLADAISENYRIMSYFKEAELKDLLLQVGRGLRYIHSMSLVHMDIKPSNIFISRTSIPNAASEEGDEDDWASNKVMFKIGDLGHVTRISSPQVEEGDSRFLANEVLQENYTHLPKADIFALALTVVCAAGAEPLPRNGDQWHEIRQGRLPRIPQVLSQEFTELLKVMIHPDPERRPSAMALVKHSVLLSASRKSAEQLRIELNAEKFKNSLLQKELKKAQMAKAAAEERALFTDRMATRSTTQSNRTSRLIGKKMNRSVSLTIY

Compound	IC50 (Human PKMYT1)	IC50 (WEE1)	PKMYT1 vs. WEE1 selectivity (WEE1)
Cc1ccc(O)c(C)c1NC(=O)c1cnc(Nc2cc(C(N)=O)n(C)n2)s1 [BAA-130, 2-[(5-Carbamoyl-1-methyl-pyrazol-3-yl)amino]-N-(3-hydroxy-2,6-dimethyl-phenyl)thiazole-5-carboxamide]	< 50 nM	1000 to 11000 nM	X (100-<1000 fold)
Cc1ccc(O)c(C)c1NC(=O)c1cnc(Nc2cc(C(N)=O)nn2C)s1 [BAA-131, 2-[(5-Carbamoyl-2-methyl-pyrazol-3-yl)amino]-N-(3-hydroxy-2,6-dimethyl-phenyl)thiazole-5-carboxamide]	< 50 nM	> 11000 nM	Y (1000-5000 fold)
Cc1ccc(O)c(C)c1NC(=O)c1cnc(Nc2ccn(CC(=O)N3CCC(O)CC3)n2)s1 [BAA-132, N-(3-Hydroxy-2,6-dimethyl-phenyl)-2-[[1-[2-(4-hydroxy-1-piperidyl)-2-oxo-ethyl]pyrazol-3-yl]amino]thiazole-5-carboxamide]	< 50 nM	> 11000 nM	Y (1000-5000 fold)
COCCOCCNC(=O)Cn1ccc(Nc2ncc(C(=O)Nc3c(C)ccc(O)c3C)s2)n1 [BAA-134, N-(3-hydroxy-2,6-dimethyl-phenyl)-2-[[1-[2-[2-(2-methoxyethoxy)ethylamino]-2-oxo-ethyl]pyrazol-3-yl]amino]thiazole-5-carboxamide]	< 50 nM	> 11000 nM	Y (1000-5000 fold)
CCCCCCCNC(=O)Cn1ccc(Nc2ncc(C(=O)Nc3c(C)ccc(O)c3C)s2)n1 [BAA-135]	< 50 nM	1000 to 11000 nM	X (100-<1000 fold)
Cc1ccc(O)c(C)c1NC(=O)c1cnc(Nc2ccn(CC(=O)N3CC[C@@H](O)C3)n2)s1 [BAA-139, N-(3-hydroxy-2,6-dimethyl-phenyl)-2-[[1-[2-[(3R)-3-hydroxypyrrolidin-1-yl]-2-oxo-ethyl]pyrazol-3-yl]amino]thiazole-5-carboxamide]	< 50 nM	> 11000 nM	Y (1000-5000 fold)
CNC(=O)Cn1ccc(Nc2ncc(C(=O)Nc3c(C)ccc(O)c3C)s2)n1 [BAA-141, N-(3-hydroxy-2,6-dimethyl-phenyl)-2-[[1-[2-(methylamino)-2-oxo-ethyl]pyrazol-3-yl]amino]thiazole-5-carboxamide]	< 50 nM	> 11000 nM	X (100-<1000 fold)
Cc1ccc(O)c(C)c1NC(=O)c1cnc(Nc2ccn(CC(=O)N3C[C@@H]4C[C@H]3CN4C(=O)OC(C)(C)C)n2)s1 [BAA-143]	< 50 nM	> 11000 nM	Y (1000-5000 fold)
Cc1ccc(O)c(C)c1NC(=O)c1cnc(Nc2ccn(CC(=O)N3CC4(C3)CN(C(=O)OC(C)(C)C)C4)n2)s1 [BAA-144, tert-butyl 6-[2-[3-[[5-[(3-hydroxy-2,6-dimethyl-phenyl)carbamoyl]thiazol-2-yl]amino]pyrazol-1-yl]acetyl]-2,6-diazaspiro[3.3]heptane-2-carboxylate]	< 50 nM	1000 to 11000 nM	X (100-<1000 fold)
Cc1ccc(O)c(C)c1NC(=O)c1cnc(Nc2ccn(CC(=O)NCC(C)(C)O)n2)s1 [BAA-146]	< 50 nM	> 11000 nM	Y (1000-5000 fold)
Cc1ccc(O)c(C)c1NC(=O)c1cnc(Nc2ccn(CC(=O)NCCO)n2)s1 [BAA-147, N-(3-hydroxy-2,6-dimethyl-phenyl)-2-[[1-[2-(2-hydroxyethylamino)-2-oxo-ethyl]pyrazol-3-yl]amino]thiazole-5-carboxamide]	< 50 nM	> 11000 nM	Y (1000-5000 fold)
Cc1ccc(O)c(C)c1NC(=O)c1cnc(Nc2ccn(CC(=O)N3CCCCC3)n2)s1 [BAA-149, N-(3-hydroxy-2,6-dimethyl-phenyl)-2-[[1-[2-oxo-2-(1-piperidyl)ethyl]pyrazol-3-yl]amino]thiazole-5-carboxamide]	< 50 nM	> 11000 nM	Y (1000-5000 fold)
Cc1ccc(O)c(C)c1NC(=O)c1cnc(Nc2ccn(CC(=O)N3CCNC(=O)C3)n2)s1 [BAA-150]	< 50 nM	> 11000 nM	X (100-<1000 fold)
Cc1ccc(O)c(C)c1NC(=O)c1cnc(Nc2ccn(CC(=O)N3CCN(CCO)CC3)n2)s1 [BAA-153]	< 50 nM	> 11000 nM	Y (1000-5000 fold)
Cc1ccc(O)c(C)c1NC(=O)c1cnc(Nc2ccn(CC(=O)N3CCC4(CC3)CCN(C(=O)OC(C)(C)C)C4)n2)s1 [BAA-155, tert-butyl 8-[2-[3-[5-[(3-hydroxy-2,6-dimethyl-phenyl)carbamoyl]thiazol-2-ylamino]pyrazol-1-yl]acetyl]-2,8-diazaspiro[4.5]decane-2-carboxylate]	< 50 nM	> 11000 nM	X (100-<1000 fold)
Cc1ccc(O)c(C)c1NC(=O)c1cnc(Nc2ccn(CC(=O)NCC3CCN(C(=O)OC(C)(C)C)CC3)n2)s1 [BAA-157]	50 to 1000 nM	> 11000 nM	X (100-<1000 fold)
Cc1ccc(O)c(C)c1NC(=O)c1cnc(Nc2ccn(CC(=O)NCCCO)n2)s1 [BAA-159, N-(3-hydroxy-2,6-dimethyl-phenyl)-2-[[1-[2-(3-hydroxypropylamino)-2-oxo-ethyl]pyrazol-3-yl]amino]thiazole-5-carboxamide]	< 50 nM	> 11000 nM	Y (1000-5000 fold)
Cc1ccc(O)c(C)c1NC(=O)c1cnc(Nc2ccn(CC(=O)N3CCC[C@@H](O)C3)n2)s1 [BAA-161]	< 50 nM	> 11000 nM	Y (1000-5000 fold)
Cc1ccc(O)c(C)c1NC(=O)c1cnc(Nc2ccn(CC(=O)N3CC[C@H](O)C3)n2)s1 [BAA-162, N-(3-hydroxy-2,6-dimethyl-phenyl)-2-[1-[2-[(3S)-3-hydroxypyrrolidin-1-yl]-2-oxo-ethyl]pyrazol-3-ylamino]thiazole-5-carboxamide]	< 50 nM	> 11000 nM	Y (1000-5000 fold)

The remaining lines, values ahead:

IC50 (Human PKMYT1)	IC50 (WEE1)	PKMYT1 vs. WEE1 selectivity (WEE1)	Compound
< 50 nM	1000 to 11000 nM	X (100-<1000 fold)	Cc1ccc(O)c(C)c1NC(=O)c1cnc(Nc2ccn(CC(N)=O)n2)s1 [BAA-133, 2-[[1-(2-amino-2-oxo-ethyl)pyrazol-3-yl]amino]-N-(3-hydroxy-2,6-dimethyl-phenyl) thiazole-5-carboxamide]
< 50 nM	> 11000 nM	Y (1000-5000 fold)	Cc1ccc(O)c(C)c1NC(=O)c1cnc(Nc2ccn(CC(=O)N3CCC(F)(F)CC3)n2)s1 [BAA-136, 2-[[1-[2-(4,4-difluoro-1-piperidyl)-2-oxo-ethyl]pyrazol-3-yl]amino]-N-(3-hydroxy-2,6-dimethyl-phenyl)thiazole-5-carboxamide]
50 to 1000 nM	> 11000 nM	X (100-<1000 fold)	Cc1ccc(O)c(C)c1NC(=O)c1cnc(Nc2ccn(CC(=O)NC(C)(C)CO)n2)s1 [BAA-138, 2-[1-[2-[(2-hydroxy-1,1-dimethyl-ethyl)amino]-2-oxo-ethyl]pyrazol-3-ylJamino]-N-(3-hydroxy-2,6-dimethyl-phenyl)thiazole-5-carboxamide]
< 50 nM	> 11000 nM	Y (1000-5000 fold)	Cc1ccc(O)c(C)c1NC(=O)c1cnc(Nc2ccn(CC(=O)N3CCN(C(=O)OC(C)(C)C)CC3)n2)s1 [BAA-140, tert-butyl 4-[2-[3-[5-[(3-hydroxy-2,6-dimethyl-phenyl)carbamoyl]thiazol-2-ylamino]pyrazol-1-yl]acetyl]piperazine-1-carboxylate]
< 50 nM	> 11000 nM	X (100-<1000 fold)	Cc1ccc(O)c(C)c1NC(=O)c1cnc(Nc2ccn(CC(=O)N3CCN(S(C)(=O)=O)CC3)n2)s1 [BAA-142]
< 50 nM	> 11000 nM	Y (1000-5000 fold)	CC(=O)N1CCN(C(=O)Cn2ccc(Nc3ncc(C(=O)Nc4c(C)ccc(O)c4C)s3)n2)CC1 [BAA-145]
50 to 1000 nM	> 11000 nM	X (100-<1000 fold)	Cc1ccc(O)c(C)c1NC(=O)c1cnc(Nc2ccn(CC(=O)NC3CCN(C)CC3)n2)s1 [BAA-151]
< 50 nM	> 11000 nM	Y (1000-5000 fold)	Cc1ccc(O)c(C)c1NC(=O)c1cnc(Nc2ccn(CC(=O)N3CCN(C(=O)N(C)C)CC3)n2)s1 [BAA-154]
< 50 nM	> 11000 nM	Y (1000-5000 fold)	Cc1ccc(O)c(C)c1NC(=O)c1cnc(Nc2ccn(CC(=O)N3C[C@@H](C)N(C(=O)OC(C)(C)C)[C@@H](C)C3)n2)s1 [BAA-156]
50 to 1000 nM	> 11000 nM	X (100-<1000 fold)	Cc1ccc(O)c(C)c1NC(=O)c1cnc(Nc2ccn(CC(=O)NCCN3CCN(C(=O)OC(C)(C)C)CC3)n2)s1 [BAA-158]
